Source: US20220331435A1, “PROTAC SMALL MOLECULE COMPOUND AND USE THEREOF” (ZHUHAI YUFAN BIOTECHNOLOGIES CO., LTD, priority 2019, published 2022)
Like-named read-outs stand apart in the source and are kept apart here.

Experiments:
Type in all cases: cell-based
GLK = target: T1, GLK (Homo sapiens, UniProt Q8IVH8); assay: GLK degradation in Jurkat cells (Western blot); settings: treatment time 6 h, compound 100 nM
T1 construct: endogenous in cells; host or cells: Jurkat cells
T1 sequence (Q8IVH8 1-894): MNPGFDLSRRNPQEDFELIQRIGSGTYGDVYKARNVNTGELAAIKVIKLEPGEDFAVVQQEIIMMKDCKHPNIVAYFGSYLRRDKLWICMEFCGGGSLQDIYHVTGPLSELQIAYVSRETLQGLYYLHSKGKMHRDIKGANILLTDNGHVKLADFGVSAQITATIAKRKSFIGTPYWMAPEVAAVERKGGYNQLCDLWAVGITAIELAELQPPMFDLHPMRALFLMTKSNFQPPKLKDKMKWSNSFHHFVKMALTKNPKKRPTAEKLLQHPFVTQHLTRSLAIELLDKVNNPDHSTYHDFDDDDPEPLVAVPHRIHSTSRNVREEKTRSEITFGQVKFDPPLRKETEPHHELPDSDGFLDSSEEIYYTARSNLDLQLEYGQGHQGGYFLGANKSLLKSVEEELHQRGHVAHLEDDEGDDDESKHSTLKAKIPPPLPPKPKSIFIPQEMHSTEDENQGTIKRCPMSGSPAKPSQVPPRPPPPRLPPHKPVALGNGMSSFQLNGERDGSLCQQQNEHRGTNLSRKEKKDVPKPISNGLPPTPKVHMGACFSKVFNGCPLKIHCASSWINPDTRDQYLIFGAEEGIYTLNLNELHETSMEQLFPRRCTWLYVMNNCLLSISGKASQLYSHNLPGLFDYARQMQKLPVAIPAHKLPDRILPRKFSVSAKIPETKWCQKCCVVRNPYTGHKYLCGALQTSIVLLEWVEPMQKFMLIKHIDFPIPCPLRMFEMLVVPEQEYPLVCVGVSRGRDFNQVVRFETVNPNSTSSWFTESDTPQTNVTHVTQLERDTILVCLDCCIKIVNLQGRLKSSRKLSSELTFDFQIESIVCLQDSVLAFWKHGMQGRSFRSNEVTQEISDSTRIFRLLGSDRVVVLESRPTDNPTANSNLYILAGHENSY
Protocol: (§1) S1: Jurkat cells were resuscitated, and then subjected to adherent culture for 12 h, compounds were added, the compound concentrations were fixed (treatment time was 0 h, 3 h, 6 h, 12 h, 24 h and 72 h) or the treatment time was fixed (compound concentrations were 0 nM, 1 nM, 10 nM, 100 nM and 1000 nM);
(§2) S2: the culture solution was poured out, the cells were washed with 3 mL of PBS pre-cooled at 4° C., then the washing solution was discarded, an appropriate amount of lysis solution containing PMSF (100×) was added according to the cell amount, the mixture was uniformly mixed, then placed on ice for lysis for 30 min, and centrifuged at 12000 rpm and at 4° C. for 5 min, (a centrifuge was started for pre-cooling in advance), and the centrifuged supernatant was transferred into a new centrifuge tube and prepared for quantification;
(§3) S3: an BCA quantitative reagent of Pierce™ BCA Protein Assay Kit (23225) was added at 200 uL/well, then 20 uL of BSA with known different concentrations was added to prepare a protein quantitative standard curve and a sample protein to be detected with avoiding generation of bubbles, the mixture was incubated for 30 min in the dark at 37° C., an OD value was measured at 562 nm, then an appropriate amount of SDS-PAGE loading buffer was added to the protein sample, and the reaction mixture was heated for 5 min in a boiling water bath to fully denature the protein, and stored at −20° C. for later use;
(§4) S4: an SDS-PAGE gel was prepared, wherein the voltage of a concentrated gel was 90 V, and the voltage of a separation gel was 120 V, a membrane was transferred for 1 h at 4° C. and at a voltage of 100 V, after the membrane was transferred, the protein membrane was immediately placed in a prepared 5% BSA solution, and the mixture was slowly shaken on a shaker, and sealed for 1 h at room temperature;
(§5) S5: the primary antibody was diluted according to an appropriate proportion according to the specifications of HPK1 Antibody (4472S CST), GLK (D1L4G) Rabbit mAb (92427S CST), SLP-76 (D1R1A) Rabbit mAb (70896S CST), Phospho-SLP-76 (Ser376) (D7S1K) XP® Rabbit mAb (92711T CST) and β-actin Mouse Monoclonal antibody (BE0021 easybio), then incubated overnight with slow shaking at 4° C., and washed 3 times with PBST for 10 min/time;
(§6) S6: Goat Anti-Rabbit IgG (H&L)-HRP Conjugated (BE0101 easybio) or Goat Anti-Mouse IgG (H&L)-HRP Conjugated (BE0102 easybio) was selected according to the primary antibody, and the secondary antibody was diluted according to an appropriate proportion according to the specification of the secondary antibody, then incubated for 1 h at room temperature with slow shaking, and washed 3 times with PBST for 10 min/time; and
(§7) S7: an ECL luminescence was added, the results were observed by a developing machine, Western results were quantified using Image J software, and the degradation rates (HPK1 and GLK) or inhibition rates (SLP76 Ser376 phosphorylation) were calculated by comparison with a control group to which no compounds were added, (degradation rate/inhibition rate=1−administration group/control group).

HPK1 [1] = target: T2, HPK1 (Homo sapiens, UniProt Q92918); assay: HPK1 degradation in Jurkat cells (Western blot); settings: for HPK1 degradation rate at 0.1 µM: Jurkat, treatment time 6 h; for Degradation rate (10 nM) / Degradation rate (100 nM): HPK1, treatment time 12 h; for Degradation rate (10 nM): compound 10 nM; for Degradation rate (12 h): 12 h (Table 2)
T2 construct: endogenous in cells; host or cells: Jurkat cells
T2 sequence (Q92918 whole entry): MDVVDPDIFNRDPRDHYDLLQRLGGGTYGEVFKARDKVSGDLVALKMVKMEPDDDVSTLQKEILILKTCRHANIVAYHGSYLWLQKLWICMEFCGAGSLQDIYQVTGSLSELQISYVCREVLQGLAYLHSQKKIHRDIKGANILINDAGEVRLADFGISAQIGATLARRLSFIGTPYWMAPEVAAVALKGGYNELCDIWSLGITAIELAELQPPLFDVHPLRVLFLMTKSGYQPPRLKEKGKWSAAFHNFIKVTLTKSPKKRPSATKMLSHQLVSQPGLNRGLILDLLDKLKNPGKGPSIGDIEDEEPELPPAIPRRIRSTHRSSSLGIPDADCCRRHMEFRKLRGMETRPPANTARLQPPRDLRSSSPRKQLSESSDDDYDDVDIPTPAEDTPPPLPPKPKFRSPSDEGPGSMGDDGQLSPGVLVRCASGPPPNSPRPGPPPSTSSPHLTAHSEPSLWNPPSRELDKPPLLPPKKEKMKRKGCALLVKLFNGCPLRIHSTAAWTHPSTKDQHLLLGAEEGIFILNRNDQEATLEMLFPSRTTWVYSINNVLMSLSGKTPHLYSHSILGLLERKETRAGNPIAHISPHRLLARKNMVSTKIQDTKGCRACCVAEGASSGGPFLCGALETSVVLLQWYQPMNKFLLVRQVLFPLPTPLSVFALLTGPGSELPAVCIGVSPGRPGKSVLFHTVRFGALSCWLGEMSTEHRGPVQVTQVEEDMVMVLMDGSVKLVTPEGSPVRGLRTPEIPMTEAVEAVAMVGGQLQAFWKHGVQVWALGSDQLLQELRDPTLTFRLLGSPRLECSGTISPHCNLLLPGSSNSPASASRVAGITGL
Protocol: as §1, §2, §3, §4, §5, §6, §7

[2] = tested on: SLP76 Ser376 phosphorylation; assay: Inhibition of SLP76 Ser376 phosphorylation in Jurkat cells (Western blot); settings: Homo sapiens, compound 100 nM
Protocol: as §1, §2, §3, §4, §5, §6, §7

HPK1 [3] = target: T2, HPK1; assay: HPK1 degradation in Jurkat cells (Western blot); settings: compound 100 nM
[4] = treatment time 6 h, read-out: SLP76 phosphorylation inhibition rate

Structure (SMILES)	GLK degradation rate (GLK) [%]	HPK1 degradation rate at 0.1 µM (HPK1 [1]; 6 h, compound 100 nM) [%]	inhibition at 0.1 µM [2, 4] [%]	further results
CC(C)(O)C#Cc1cccc(COc2cc(-c3cnc(C4CCN(C(=O)CCCCCCCOc5cccc6c5C(=O)N(C5CCC(=O)NC5=O)C6=O)CC4)s3)cnc2N)c1 (centres unmarked) [Compound C1]				Degradation rate (10 nM) (HPK1 [1]): 47%; Degradation rate (100 nM) (HPK1 [1]; compound 100 nM): 68%
CC(C)(O)C#Cc1cccc(COc2cc(-c3cnc(C4CCN(C(=O)CCNC(=O)CCCCCOc5cccc6c5C(=O)N(C5CCC(=O)NC5=O)C6=O)CC4)s3)cnc2N)c1 (centres unmarked) [Compound C15]	38	-27	-7	
CC(C)(O)C#Cc1cccc(COc2cc(-c3cnc(C4CCN(C(=O)CCOCCOCCOCCOCCOc5cccc6c5C(=O)N(C5CCC(=O)NC5=O)C6=O)CC4)s3)cnc2N)c1 (centres unmarked) [Compound C7]				Degradation rate (12 h) (HPK1 [1]; HPK1, compound 100 nM): 58%; Degradation rate (24 h) (HPK1 [1]; HPK1, compound 100 nM): 86%; Degradation rate (72 h) (HPK1 [1]; HPK1, compound 100 nM, 72 h): −9%; Degradation rate (10 nM) (HPK1 [1]): 72%; Degradation rate (100 nM) (HPK1 [1]; compound 100 nM): 68%; Degradation rate (48 h) (HPK1 [3]): −40%
CC(C)(O)C#Cc1cccc(COc2cc(-c3cnc(C4CCN(C(=O)CCNC(=O)CCCOc5cccc6c5C(=O)N(C5CCC(=O)NC5=O)C6=O)CC4)s3)cnc2N)c1 (centres unmarked) [Compound C13]	43	38	4	
CC(C)(O)C#Cc1cccc(COc2cc(-c3cnc(C4CCN(C(=O)CCOCCCCCCOc5cccc6c5C(=O)N(C5CCC(=O)NC5=O)C6=O)CC4)s3)cnc2N)c1 (centres unmarked) [Compound C9]	−34	46	61	
CC(C)(O)C#Cc1cccc(COc2cc(-c3cnc(C4CCN(C(=O)CCCCCCCCCOc5cccc6c5C(=O)N(C5CCC(=O)NC5=O)C6=O)CC4)s3)cnc2N)c1 (centres unmarked) [Compound C3]				inhibition at 0.1 µM ([2]; maximum over different time points, read-out: Maximum inhibition rate of SLP76 Ser376 phosphorylation): 81%; Degradation rate (3 h) (HPK1 [1]; HPK1, compound 100 nM, 3 h): 54%; Degradation rate (6 h) (HPK1 [1]; HPK1, compound 100 nM, 6 h): 52%; Degradation rate (12 h) (HPK1 [1]; HPK1, compound 100 nM): 58%; Degradation rate (24 h) (HPK1 [1]; HPK1, compound 100 nM): 3%; Degradation rate (10 nM) (HPK1 [1]): 15%; Degradation rate (100 nM) (HPK1 [1]; compound 100 nM): 75%; Dmax at 0.1 µM (HPK1 [1]; compound 100 nM, maximum over different time points, read-out: Maximum degradation rate of HPK1): 62%; Degradation rate (48 h) (HPK1 [3]): 11%
CN1C(=O)CCC(N2C(=O)c3cccc(OCCCCCCCC(=O)N4CCC(c5ncc(-c6cnc(N)c(OCc7cccc(C#CC(C)(C)O)c7)c6)s5)CC4)c3C2=O)C1=O (centres unmarked) [Compound C2]				Degradation rate (10 nM) (HPK1 [1]): 39%; Degradation rate (100 nM) (HPK1 [1]; compound 100 nM): 33%
CC(C)(O)C#Cc1cccc(COc2cc(-c3cnc(C4CCN(C(=O)C5CCN(C(=O)CCCCCCOc6cccc7c6C(=O)N(C6CCC(=O)NC6=O)C7=O)CC5)CC4)s3)cnc2N)c1 (centres unmarked) [Compound C19]			3	
CC(C)(O)C#Cc1cccc(COc2cc(-c3cnc(C4CCN(C(=O)Cn5cc(COCCOc6cccc7c6C(=O)N(C6CCC(=O)NC6=O)C7=O)nn5)CC4)s3)cnc2N)c1 (centres unmarked) [Compound C20]	15	-15	7	HPK1 degradation rate (12 h) (HPK1 [1]; 12 h (in-cell remark of Table 4), compound 100 nM): 41%
CC(C)(O)C#Cc1cccc(COc2cc(-c3cnc(C4CCN(C(=O)CCOCCCCCOc5cccc6c5C(=O)N(C5CCC(=O)NC5=O)C6=O)CC4)s3)cnc2N)c1 (centres unmarked) [Compound C8]	34	66	51	
CC(C)(O)C#Cc1cccc(COc2cc(-c3cnc(C4CCN(C(=O)CCNC(=O)CCCCOc5cccc6c5C(=O)N(C5CCC(=O)NC5=O)C6=O)CC4)s3)cnc2N)c1 (centres unmarked) [Compound C14]	60	58	26	

More lines, main results first:

GLK degradation rate (GLK) [%]	HPK1 degradation rate at 0.1 µM (HPK1 [1]; 6 h, compound 100 nM) [%]	Structure (SMILES)	inhibition at 0.1 µM [2, 4] [%]	further results
−36	30	CC(C)(O)C#Cc1cccc(COc2cc(-c3cnc(C4CCN(C(=O)CCOCCCCCCCCOc5cccc6c5C(=O)N(C5CCC(=O)NC5=O)C6=O)CC4)s3)cnc2N)c1 (centres unmarked) [Compound C11]		
42	-7	CC(C)(O)C#Cc1cccc(COc2cc(-c3cnc(C4CCN(C(=O)C5CCN(C(=O)CCCCOc6cccc7c6C(=O)N(C6CCC(=O)NC6=O)C7=O)CC5)CC4)s3)cnc2N)c1 (centres unmarked) [Compound C17]	22	
74	49	CC(C)(O)C#Cc1cccc(COc2cc(-c3cnc(C4CCN(C(=O)CCNC(=O)CCCCCCOc5cccc6c5C(=O)N(C5CCC(=O)NC5=O)C6=O)CC4)s3)cnc2N)c1 (centres unmarked) [Compound C16]	24	
71	39	CC(C)(O)C#Cc1cccc(COc2cc(-c3cnc(C4CCN(C(=O)C5CCN(C(=O)CCCCCOc6cccc7c6C(=O)N(C6CCC(=O)NC6=O)C7=O)CC5)CC4)s3)cnc2N)c1 (centres unmarked) [Compound C18]	34	
